Results as given in BindingDB's records for doi:10.1021/acsmedchemlett.1c00211 (Biogen, 2021).

Key:
[1] = biological target: Autotaxin (ENPP2) (Rattus norvegicus) (UniProt Q64610); test: Inhibition of LPA in rat plasma after 18 hrs by LC-MS/MS analysis
[2] = biological target: Autotaxin (ENPP2) (Homo sapiens) (UniProt Q13822); test: Inhibition of LPA in human plasma after 18 hrs by LC-MS/MS analysis

## C[C@@H](c1ccc2ccc(O[C@H]3CC[C@@H](C(F)(F)F)CC3)c(C(F)(F)F)c2c1)N1C2CCC1CC(C(=O)O)C2 (some centres not stated)
[1]
  IC50: 47 nM
[2]
  IC50: 53 nM
